# Reference: patent US20140341922A1, “Method for Overcoming Tolerance to Targeted Anti-Cancer Agent” (SUN R&DB Foundation, priority 2011, published 2014)
# How the values were obtained:
# [1] = test system: Src and FAK phosphorylation; assay: Fluorescent immunostaining of pSrc and pFAK; type: cell-based, human
# Description: The present inventors reconfirmed the western blot analysis results in which Src and FAK phosphorylation was increased due to cixutumumab in the presence of IGF-1 by fluorescent immunostaining. Cultured LN686 cells in UAPs with cixutumumab alone or in combination with IGF-1 or an integrin β3 neutralizing antibody, treated with IGF-1 to fix, and then Src and FAK phosphorylation was confirmed. […] Such an action of the cixutumumab was abolished by the IGF-1 or integrin β3 neutralizing antibody, and therefore it was reconfirmed that the action of cixutumumab for inducing the Src and FAK phosphorylation was mediated by integrin β3 in the presence of IGF-1.
# According to the Previous study, a modified integrin β3 expression vector was prepared by substituting an amino acid sequence (CYDMKTTC, residues 177-184) of the integrin β3 essential for the IGF-1 bond with an amino acid sequence (CTSEQNC, residues 187-193) of integrin β1 at a corresponding position. An empty vector or a modified integrin β3 expression vector was transfected into FADU cells. These cells were plated, and cultured along with cixutumumab (25 μg/ml) alone or in combination with IGF-1 or an integrin β3 neutralizing antibody for 4 h. After the culture, IGF-1 […] was treated for 1 hour, and the cells were recovered, washed with PBS, and fixed with 10% formalin for 2 h. […]
# [2] = test system: HNSCC and NSCLC cells; assay: Soft agar colony formation assay; type: cell-based, human
# Procedure: To evaluate the effect on anchorage-independent colony formation, cells were suspended in 0.4% agar in media at a density of 2×10^3 cells per well, replated in 12-well plates that have been pre-coated with 0.8% agar, and cultured in growth medium containing cixutumumab (25 μg/ml) for 2-6 weeks. Cells were stained with 0.1% Coomassie brilliant blue in PBS, and the colonies >0.2 mm in diameter were counted. Independent experiments were repeated three times.
# Because cells grown in the 3D environment might differ from cells growing in PCPs and UAPs, the present inventor evaluated the effects of cixutumumab on cell growth in soft agar, a 3D culture system. 10 HNSCC and 6 NSCLC cells were cultured in soft agar for 4 to 6 weeks in the presence or absence of cixutumumab (25 μg/ml).
# [3] = test system: LN686, H226B, UMSCC38 and A549m xenograft tumors; assay: Xenograft tumors of drug-resistant and -sensitive cells in nude mice; type: in vivo; conditions: intraperitoneal, 25 mg/kg twice a week
# Procedure: LN686, UMSCC38, H226B, or A549m cells (1×10^6 cells/mouse in 100 μl of PBS) were subcutaneously injected into nude mice at a single dorsal flank site (6-9 mice per group). For HNSCC patient-derived tumor xenografts, primary human tumor specimens were collected from an untreated patient who underwent lobectomies of squamous carcinoma of the oral cavity. The tumors were cut into small pieces with a size of 2-mm^3 and subcutaneously implanted into the nude mice (one piece per mouse). At 0 day (the time point when tumor size reached to 80 to 100 mm^3) mice were treated with cixutumumab (10 mg/kg, i.p., once or twice a week), Ad-EV (3×10^11 pfu, intratumoral injection, once a week), Ad-CSK (3×10^11 pfu, intratumoral injection, once a week), siCon, siintegrin β3 ([…], i.p., once a week), dasatinib (20 mg/kg, oral gavage, daily), cixutumumab and Ad-CSK, or cixutumumab and dasatinib.
# Tumor xenografts were treated with vehicle or cituxumumab (intraperitoneal, 25 mg/kg) twice a week. Data are presented as mean tumor volume ±SD for indicated time or mean tumor weight at the date of euthanasia ±SD (*P<0.05, **P<0.01, ***P<0.001). […] Thus, antitumor activity of cixutumumab was consistent in cells grown in 3D (or 3D-mimicking) conditions in vitro and in those grown in vivo.
substance,measurement,setting,value
"cixutumumab: humanized mAb targeting IGF-1R, provided by ImClone Systems",IGF-1-induced Src and FAK phosphorylation in cell membrane,[1]; LN686 cells adhered to ECM-coated coverslip,did not suppress or somewhat increased
same,Src and FAK phosphorylation (immunostaining),"[1]; LN686 cells in UAPs, in the presence of IGF-1",enhanced phosphorylation
same,colony formation in soft agar,"[2]; OSC19 and A549 cells, 3D system",concentration-dependent inhibitory effects
same,colonies formed in soft agar,"[2]; sensitive NSCLC and HNSCC lines vs resistant and mildly sensitive lines, 25 μg/ml, 4 to 6 weeks",significantly fewer colonies
same,growth and weight of xenograft tumors,[3]; LN686 and H226B xenografts,no significant effects
same,growth and weight of xenograft tumors,[3]; UMSCC38 and A549 xenografts,significantly decreased
